According to patent US9963442B2, “Pyridones as herbicides” (E I DU PONT DE NEMOURS AND COMPANY, priority 2014, dated 2018):

Legend:
Type in all cases: in vivo
[1] = tested on: Italian ryegrass (Lolium multiflorum); test: Test C preemergence; details: scale 0 to 100, 0 is no effect, 100 is complete control
From the text: (§1) Seeds of plant species selected from blackgrass (Alopecurus myosuroides), Italian ryegrass (Lolium multiflorum), winter wheat (Triticum aestivum), galium (catchweed bedstraw, Galium aparine), corn (Zea mays), large (Lg) crabgrass (Digitaria sanguinalis), giant foxtail (Setaria faberii), johnsongrass (Sorghum halepense), lambsquarters (Chenopodium album), morningglory (Ipomoea coccinea), yellow nutsedge (Cyperus esculentus), pigweed (Amaranthus retroflexus), ragweed (common ragweed, Ambrosia elatior), soybean (Glycine max), barnyardgrass (Echinochloa crus-galli), oilseed rape (Brassica napus), waterhemp (common waterhemp, Amaranthus rudis), and velvetleaf (Abutilon theophrasti) were planted into a blend of loam soil and sand and treated preemergence with test chemicals formulated in a non-phytotoxic solvent mixture which included a surfactant. At the same time, plants selected from these crop and weed species and also chickweed (common chickweed, Stellaria media), kochia (Kochia scoparia), and wild oat (Avena fatua), were planted in pots containing Sunshine Redi-Earth® planting medium comprising spaghnum peat moss, vermiculite, starter nutrients and dolomitic limestone and treated with postemergence applications of test chemicals formulated in the same manner. Plants ranged in height from 2 to 18 cm (1- to 4-leaf stage) for postemergence treatments. Treated plants and controls were maintained in a greenhouse for 13 to 15 days, after which time all species were compared to controls and visually evaluated. Plant response ratings, summarized in Table C, are based on a scale of 0 to 100 where 0 is no effect and 100 is complete control. A dash (-) response means no test result.

[2] = tested on: galium (catchweed bedstraw, Galium aparine); test: Test C preemergence; details: scale 0 to 100, 0 is no effect, 100 is complete control
From the text: as §1

[3] = tested on: giant foxtail (Setaria faberii); test: Test C preemergence; details: scale 0 to 100, 0 is no effect, 100 is complete control
From the text: as §1

[4] = tested on: velvetleaf (Abutilon theophrasti); test: Test C preemergence; details: scale 0 to 100, 0 is no effect, 100 is complete control
From the text: as §1

[5] = tested on: large (Lg) crabgrass (Digitaria sanguinalis); test: Test C preemergence; details: scale 0 to 100, 0 is no effect, 100 is complete control
From the text: as §1

[6] = tested on: blackgrass (Alopecurus myosuroides); test: Test A postemergence application; details: approx. 10 days
How it was run: (§2)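 Compounds in non-phytotoxic solvent with surfactant applied as directed soil spray preemergence or postemergence to plants 2–10 cm, one- to two-leaf stage, in loam/sand. Injury rated visually versus untreated controls after about 10 days in greenhouse, 0 (no effect) to 100 (complete control).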

corn (Zea mays) = test: Test A postemergence application; details: approx. 10 days
How it was run: as §2

[7] = tested on: barnyardgrass (Echinochloa crus-galli); test: Test A postemergence application; details: approx. 10 days
How it was run: as §2

kochia (Kochia scoparia) = test: Test A postemergence application; details: approx. 10 days
How it was run: as §2

[8] = tested on: wheat (Triticum aestivum); test: Test A postemergence application; details: approx. 10 days
How it was run: as §2

[9] = tested on: ragweed (common ragweed, Ambrosia elatior); test: Test A postemergence application; details: approx. 10 days
How it was run: as §2

[10] = tested on: Italian ryegrass (Lolium multiflorum); test: Test A postemergence application; details: approx. 10 days
How it was run: as §2

[11] = tested on: galium (catchweed bedstraw, Galium aparine); test: Test A postemergence application; details: approx. 10 days
How it was run: as §2

[12] = tested on: giant foxtail (Setaria faberii); test: Test A postemergence application; details: approx. 10 days
How it was run: as §2

[13] = tested on: pigweed (Amaranthus retroflexus); test: Test A postemergence application; details: approx. 10 days
How it was run: as §2

[14] = tested on: sedge, umbrella (small-flower umbrella sedge, Cyperus difformis); test: Test B flooded paddy test; design: key: 0 = no effect, 100 = complete control; details: Flood, 250 g ai/ha applied to paddy water at 2-leaf stage; visually evaluated after 13 to 15 days; scale 0 (no effect) to 100 (complete control)
How it was run: (§3)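 Treatment was made at the 2-leaf stage by dosing the standing floodwater, kept 3 cm above soil level for the whole test. Greenhouse exposure lasted 13 to 15 days. Response is a visual percent rating relative to controls, where a dash indicates no test result.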

[15] = tested on: barnyardgrass (Echinochloa crus-galli); test: Test B flooded paddy test; design: key: 0 = no effect, 100 = complete control; details: Flood, 250 g ai/ha applied to paddy water at 2-leaf stage; visually evaluated after 13 to 15 days; scale 0 (no effect) to 100 (complete control)
How it was run: as §3

rice (Oryza sativa) = test: Test B flooded paddy test; design: key: 0 = no effect, 100 = complete control; details: Flood, 250 g ai/ha applied to paddy water at 2-leaf stage; visually evaluated after 13 to 15 days; scale 0 (no effect) to 100 (complete control)
How it was run: as §3

[16] = tested on: ducksalad (Heteranthera limosa); test: Test B flooded paddy test; design: key: 0 = no effect, 100 = complete control; details: Flood, 250 g ai/ha applied to paddy water at 2-leaf stage; visually evaluated after 13 to 15 days; scale 0 (no effect) to 100 (complete control)
How it was run: as §3

O=c1cccc(Oc2ncc(Cl)cn2)n1-c1ccc(Cl)cc1 [Compound 1, 1-(4-chlorophenyl)-6-[(5-chloro-2-pyrimidinyl)oxy]-2(1H)-pyridinone]
Plant response rating, Ryegrass, Italian ([1]; 16 g ai/ha): 0
Plant response rating, Ryegrass, Italian ([1]; 31 g ai/ha): 0
Plant response rating, Ryegrass, Italian ([1]; 62 g ai/ha): 5
Plant response rating, Ryegrass, Italian ([1]; 125 g ai/ha): 60
Plant response rating, Galium ([2]; 16 g ai/ha): 90
Plant response rating, Galium ([2]; 31 g ai/ha): 0
Plant response rating, Galium ([2]; 62 g ai/ha): 0
Plant response rating, Galium ([2]; 125 g ai/ha): 40
Plant response rating, Foxtail, Giant ([3]; 16 g ai/ha): 10
Plant response rating, Foxtail, Giant ([3]; 31 g ai/ha): 55
Plant response rating, Foxtail, Giant ([3]; 62 g ai/ha): 90
Plant response rating, Foxtail, Giant ([3]; 125 g ai/ha): 100
Plant response rating, Velvetleaf ([4]; 16 g ai/ha): 0
Plant response rating, Velvetleaf ([4]; 31 g ai/ha): 0
Plant response rating, Velvetleaf ([4]; 62 g ai/ha): 5
Plant response rating, Velvetleaf ([4]; 125 g ai/ha): 10
Plant response rating, Crabgrass, Large ([5]; 16 g ai/ha): 5
Plant response rating, Crabgrass, Large ([5]; 31 g ai/ha): 70
Plant response rating, Crabgrass, Large ([5]; 62 g ai/ha): 98
Plant response rating, Crabgrass, Large ([5]; 125 g ai/ha): 100
Plant response rating (0 to 100 scale, 0 no effect, 100 complete control), Blackgrass ([6]; 125 g ai/ha): 20
Plant response rating (0 to 100 scale, 0 no effect, 100 complete control), Blackgrass ([6]; 500 g ai/ha): 90
Plant response rating (0 to 100 scale, 0 no effect, 100 complete control), Corn (corn (Zea mays); 125 g ai/ha): 30
Plant response rating (0 to 100 scale, 0 no effect, 100 complete control), Corn (corn (Zea mays); 500 g ai/ha): 30
Plant response rating (0 to 100 scale, 0 no effect, 100 complete control), Barnyardgrass ([7]; 125 g ai/ha): 20
Plant response rating (0 to 100 scale, 0 no effect, 100 complete control), Barnyardgrass ([7]; 500 g ai/ha): 100
Plant response rating (0 to 100 scale, 0 no effect, 100 complete control), Kochia (kochia (Kochia scoparia); 125 g ai/ha): 90
Plant response rating (0 to 100 scale, 0 no effect, 100 complete control), Kochia (kochia (Kochia scoparia); 500 g ai/ha): 100
Plant response rating (0 to 100 scale, 0 no effect, 100 complete control), Wheat ([8]; 125 g ai/ha): 30
Plant response rating (0 to 100 scale, 0 no effect, 100 complete control), Wheat ([8]; 500 g ai/ha): 40
Plant response rating (0 to 100 scale, 0 no effect, 100 complete control), Ragweed ([9]; 125 g ai/ha): 20
Plant response rating (0 to 100 scale, 0 no effect, 100 complete control), Ragweed ([9]; 500 g ai/ha): 20
Plant response rating (0 to 100 scale, 0 no effect, 100 complete control), Ryegrass, Italian ([10]; 125 g ai/ha): 0
Plant response rating (0 to 100 scale, 0 no effect, 100 complete control), Ryegrass, Italian ([10]; 500 g ai/ha): 70
Plant response rating (0 to 100 scale, 0 no effect, 100 complete control), Galium ([11]; 125 g ai/ha): 50
Plant response rating (0 to 100 scale, 0 no effect, 100 complete control), Galium ([11]; 500 g ai/ha): 100
Plant response rating (0 to 100 scale, 0 no effect, 100 complete control), Foxtail, Giant ([12]; 125 g ai/ha): 70
Plant response rating (0 to 100 scale, 0 no effect, 100 complete control), Foxtail, Giant ([12]; 500 g ai/ha): 100
Plant response rating (0 to 100 scale, 0 no effect, 100 complete control), Pigweed ([13]; 125 g ai/ha): 100
Plant response rating (0 to 100 scale, 0 no effect, 100 complete control), Pigweed ([13]; 500 g ai/ha): 100
Plant response rating, Sedge, Umbrella [14]: 65
Plant response rating, Barnyardgrass [15]: 20
Plant response rating, Rice (rice (Oryza sativa)): 10
Plant response rating, Ducksalad [16]: 45

O=c1cccc(Oc2ncc(Cl)cn2)n1-c1ncc(Cl)cn1 [Compound 6]
Plant response rating, Ryegrass, Italian ([1]; 16 g ai/ha): 0
Plant response rating, Ryegrass, Italian ([1]; 31 g ai/ha): 5
Plant response rating, Ryegrass, Italian ([1]; 62 g ai/ha): 5
Plant response rating, Ryegrass, Italian ([1]; 125 g ai/ha): 5
Plant response rating, Galium ([2]; 16 g ai/ha): 80
Plant response rating, Galium ([2]; 31 g ai/ha): 90
Plant response rating, Galium ([2]; 62 g ai/ha): 90
Plant response rating, Galium ([2]; 125 g ai/ha): 90
Plant response rating, Foxtail, Giant ([3]; 16 g ai/ha): 0
Plant response rating, Foxtail, Giant ([3]; 31 g ai/ha): 5
Plant response rating, Foxtail, Giant ([3]; 62 g ai/ha): 70
Plant response rating, Foxtail, Giant ([3]; 125 g ai/ha): 100
Plant response rating, Velvetleaf ([4]; 16 g ai/ha): 10
Plant response rating, Velvetleaf ([4]; 31 g ai/ha): 25
Plant response rating, Velvetleaf ([4]; 62 g ai/ha): 40
Plant response rating, Velvetleaf ([4]; 125 g ai/ha): 80
Plant response rating, Crabgrass, Large ([5]; 16 g ai/ha): 5
Plant response rating, Crabgrass, Large ([5]; 31 g ai/ha): 50
Plant response rating, Crabgrass, Large ([5]; 62 g ai/ha): 90
Plant response rating, Crabgrass, Large ([5]; 125 g ai/ha): 100
Plant response rating (0 to 100 scale, 0 no effect, 100 complete control), Blackgrass ([6]; 31 g ai/ha): 10
Plant response rating (0 to 100 scale, 0 no effect, 100 complete control), Blackgrass ([6]; 125 g ai/ha): 50
Plant response rating (0 to 100 scale, 0 no effect, 100 complete control), Corn (corn (Zea mays); 31 g ai/ha): 0
Plant response rating (0 to 100 scale, 0 no effect, 100 complete control), Corn (corn (Zea mays); 125 g ai/ha): 20
Plant response rating (0 to 100 scale, 0 no effect, 100 complete control), Barnyardgrass ([7]; 31 g ai/ha): 10
Plant response rating (0 to 100 scale, 0 no effect, 100 complete control), Barnyardgrass ([7]; 125 g ai/ha): 30
Plant response rating (0 to 100 scale, 0 no effect, 100 complete control), Kochia (kochia (Kochia scoparia); 31 g ai/ha): 80
Plant response rating (0 to 100 scale, 0 no effect, 100 complete control), Kochia (kochia (Kochia scoparia); 125 g ai/ha): 90
Plant response rating (0 to 100 scale, 0 no effect, 100 complete control), Wheat ([8]; 31 g ai/ha): 0
Plant response rating (0 to 100 scale, 0 no effect, 100 complete control), Wheat ([8]; 125 g ai/ha): 0
Plant response rating (0 to 100 scale, 0 no effect, 100 complete control), Ragweed ([9]; 31 g ai/ha): 30
Plant response rating (0 to 100 scale, 0 no effect, 100 complete control), Ragweed ([9]; 125 g ai/ha): 50
Plant response rating (0 to 100 scale, 0 no effect, 100 complete control), Ryegrass, Italian ([10]; 31 g ai/ha): 0
Plant response rating (0 to 100 scale, 0 no effect, 100 complete control), Ryegrass, Italian ([10]; 125 g ai/ha): 20
Plant response rating (0 to 100 scale, 0 no effect, 100 complete control), Galium ([11]; 31 g ai/ha): 60
Plant response rating (0 to 100 scale, 0 no effect, 100 complete control), Galium ([11]; 125 g ai/ha): 90
Plant response rating (0 to 100 scale, 0 no effect, 100 complete control), Foxtail, Giant ([12]; 31 g ai/ha): 10
Plant response rating (0 to 100 scale, 0 no effect, 100 complete control), Foxtail, Giant ([12]; 125 g ai/ha): 60
Plant response rating (0 to 100 scale, 0 no effect, 100 complete control), Pigweed ([13]; 31 g ai/ha): 80
Plant response rating (0 to 100 scale, 0 no effect, 100 complete control), Pigweed ([13]; 125 g ai/ha): 90
Plant response rating, Sedge, Umbrella [14]: 85
Plant response rating, Barnyardgrass [15]: 0
Plant response rating, Rice (rice (Oryza sativa)): 0
Plant response rating, Ducksalad [16]: 80
